Laboratory results published in paper PMC3171192 (Journal of medicinal chemistry, 2011).
*1 amine or outer side, *2 acyl side, *3 side chain or, on linkers, in order; H or OH if unused. Where a SMILES comes first, the peptide text is derived from it. [ ]: non-standard residue; d: D form. X1 = O=C(CCc1cccc2c1oc1c(CCN[*:1])cccc12)[*:2]

How the values were obtained:
[1] = biological target: T1, CD2–CD58 interaction (adhesion between T cells (Jurkat, CD2) and Caco-2 cells (CD58)) (Homo sapiens, UniProt P19256); assay: Lymphocyte-epithelial adhesion assay; format: cell-based; settings: concentration range 0.0005 to 150 µM
T1 sequence (P19256 29-250): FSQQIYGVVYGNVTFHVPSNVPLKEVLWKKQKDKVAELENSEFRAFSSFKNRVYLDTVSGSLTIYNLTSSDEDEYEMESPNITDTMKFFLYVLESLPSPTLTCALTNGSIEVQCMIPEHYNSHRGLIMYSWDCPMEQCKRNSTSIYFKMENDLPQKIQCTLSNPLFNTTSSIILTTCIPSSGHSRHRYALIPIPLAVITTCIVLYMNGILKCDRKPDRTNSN

[2] = tested on: Caco-2 cells; assay: CellTiter-Glo cell viability assay, Caco-2 cells
[3] = tested on: Jurkat cells; assay: CellTiter-Glo cell viability assay, Jurkat cells

Compound | cell adhesion inhibition in the lymphocyte epithelial assay [1] [%] | toxicity effects on Caco-2 cells [2] | toxicity effects on T cells [3]
KGKTDAISVKAI-NH2 [control peptide] | ~18 | – | –
CC[C@H](C)[C@@H]1NC(=O)[C@H](Cc2ccc(O)cc2)NC(=O)[C@H](CC(=O)O)NC(=O)CCc2cccc3c2Oc2c(cccc2-3)CCNC(=O)[C@H](CC(=O)O)NC(=O)[C@H](CC(=O)O)NC(=O)[C@H](CCCCN)NC1=O [Peptide 7] (cyclo(DD[X1]DYIK)) | – | did not show any toxicity effects | did not show any toxicity effects
